Laboratory results as given in patent US20170223953A1, “MICROBICIDAL COMPOSITION” (Dow Global Technologies LLC, priority 2016, published 2017).

Test system: Desulfovibrio longus ATCC 51456
Assay: Biocidal efficacy (complete bacterial kill in 2 hours) and Synergy Index against anaerobic sulfate-reducing bacteria
Type: cell-based
Settings: 35° C.
Protocol: Surfactants and biocides were evaluated for synergy by determining the synergy index (S.I.) of the combination. Synergy index was calculated based on the concentration required to achieve a certain level of bacterial kill when the two antimicrobial compounds (A and B) are used alone and in combinations. The tests organisms were anaerobic sulfate-reducing bacteria (Desulfovibrio longus ATCC #51456). Inside an anaerobic chamber (Bactron anaerobic chamber), a deoxygenated sterile salt solution (3.1183 g of NaCl, 1.3082 mg of NaHCO3, 47.70 mg of KCl, 72.00 mg of CaCl2, 54.49 mg of MgSO4, 172.28 mg of Na2SO4, 43.92 mg of Na2CO3 in 1 L water) was inoculated with Desulfovibrio longus ATCC 51456 to a final bacterial concentration of 10^6 to 10^7 CFU/mL. Aliquots of this cell suspension were then treated with glutaraldehyde, and each of Surf A and B at selected active concentrations. After incubation at 35° C. for 2 hours, viable bacteria in the aliquots were enumerated using serial dilution method. […] SI is calculated as follows: Ca/CA+Cb/CB=Synergy Index (“SI”) Wherein: • Ca=Concentration of biocide A required to achieve a certain level of bacterial kill when used in combination with B • CA=Concentration of biocide A required to achieve a certain level of bacterial kill when used alone • Cb=Concentration of biocide B required to achieve a certain level of bacterial kill when used in combination with A • CB=Concentration of biocide B required to achieve a certain level of bacterial kill when used alone When the sum of Ca/CA and Cb/CB is greater than one, antagonism is indicated.

O=CCCCC=O [Glut, glutaraldehyde]
Concentration (active ppm) for complete bacterial kill in 2 hours, Glut (Table 1, Glut alone or in combination with Surf. A, 10^6 to 10^7 CFU/mL): 8.8 active ppm
Concentration (active ppm) for complete bacterial kill in 2 hours, Glut (Table 2, Glut alone or in combination with Surf. B): 19.8 active ppm
Concentration (active ppm) for complete bacterial kill in 2 hours, Glut (Table 3, Glut alone or in combination with Surf. C): 19.8 active ppm
